Results from the supplement of paper PMC8882468.

What was measured:
Test in all cases: CTG-3D luminescence at 96 h relative to day-0 seeding control (ratio to day 0); higher = more growth / less cytotoxicity; PDxO 3D drug screen, 96 h, CTG-3D normalised to day-0 seeding control.
[1] = test system: HCI-001 (organoid from a triple-negative breast cancer xenograft)
[2] = test system: HCI-002 (organoid from a triple-negative breast cancer xenograft)
[3] = test system: HCI-012 (organoid from a breast cancer xenograft)
[4] = test system: HCI-024 (organoid from a breast cancer xenograft)

CC(=O)O[C@H]1C(=O)[C@@]2(C)[C@H]([C@H](OC(=O)c3ccccc3)[C@]3(O)C[C@H](OC(=O)[C@H](O)[C@@H](NC(=O)c4ccccc4)c4ccccc4)C(C)=C1C3(C)C)[C@]1(OC(C)=O)CO[C@@H]1C[C@@H]2O [paclitaxel]
CTG-3D luminescence at 96 h
Conditions	12.5 pM	0.00025 µM	0.005 µM	0.1 µM	1 µM	10 µM	100 µM	625 fM
[1], days in culture: 240	1.49	1.15	0.619	0.709	0.952	0.995	1.03	1.1
[1], days in culture: 260	2.45	1.13	1.23	1.27	1.14	1.08	0.703	1.55
[1], days in culture: 269	1.48	1.52	0.95	0.728	0.749	0.987	0.92	1.27
[1], days in culture: 327	1.26	0.725	1.04	0.686	1.06	0.714	0.685	1.53
[1], days in culture: 346	1.29	1.24	1.16	0.568	0.791	0.655	0.947	1.18
[1], days in culture: 364	1.37	1.15	1.31	0.657	0.699	0.681	0.715	1.49
[2], days in culture: 62	2.36	2.52	1.34	0.186	0.146	0.236	0.316	2.73
[2], days in culture: 82	3.27	3.2	0.859	0.217	0.193	0.224	0.174	2.8
[2], days in culture: 91	3.82	3.68	1.54	0.26	0.19	0.258	0.36	4.44
[2], days in culture: 191	2.76	2.96	1.17	0.23	0.192	0.252	0.474	2.61
[2], days in culture: 209	2.24	2.21	1.2	0.194	0.195	0.158	0.174	2.26
[2], days in culture: 227	5	5.22	3	0.418	0.279	0.365	0.464	5
[3], days in culture: 143	1.61	1.85	0.96	0.518	0.54	0.829	0.769	1.71
[3], days in culture: 162	2.5	2.34	1.11	0.633	0.571	1.14	1.16	2.67
[3], days in culture: 201	1.12	0.271	0.477	0.241	0.609	0.237	1.01	0.564
[4], days in culture: 105	1.8	1.38	1.01	1.4	1.57	1.68	1.11	1.85
[4], days in culture: 122	2.07	2.67	1.5	1.34	1.62	2.3	1.13	2.79
[4], days in culture: 163	1.62	1.72	1.29	1.68	1.65	2.37	1.26	1.56

C/C=C1\NC(=O)[C@H]2CSSCC/C=C/[C@H](CC(=O)N[C@H](C(C)C)C(=O)N2)OC(=O)[C@H](C(C)C)NC1=O [romidepsin]
CTG-3D luminescence at 96 h
Conditions	12.5 pM	0.00025 µM	0.005 µM	0.1 µM	1 µM	10 µM	100 µM	625 fM
[1], days in culture: 240	1.85	1.11	0.504	0.308	0.442	0.0301	-0.0763	1.57
[1], days in culture: 260	2.41	0.948	1.41	0.615	0.865	0.141	-0.0313	1.64
[1], days in culture: 269	1.82	1.72	0.783	0.423	0.38	0.00899	-0.0103	1.64
[1], days in culture: 327	1.6	1.01	0.868	0.329	0.501	-0.124	-0.199	1.75
[1], days in culture: 346	1.68	1.28	0.579	0.303	0.317	-0.107	-0.155	1.21
[1], days in culture: 364	1.68	1.04	0.67	0.274	0.349	0.0111	-0.0729	1.63
[2], days in culture: 62	3.13	2.76	0.0634	-0.0198	-0.0112	-0.0609	-0.0931	3.1
[2], days in culture: 82	3.16	3.38	0.0989	0.0435	0.0464	-0.0117	-0.0289	2.85
[2], days in culture: 91	2.94	2.73	0.0516	0.028	0.0172	0.000373	-0.0143	2.7
[2], days in culture: 191	3.33	3.23	-0.0284	-0.0636	-0.0937	-0.0909	-0.148	3.22
[2], days in culture: 209	2.88	2.68	0.0167	-0.00615	-0.0397	-0.0225	-0.0845	2.84
[2], days in culture: 227	5.16	4.82	0.108	0.0548	0.0335	0.0109	-0.0188	5.69
[3], days in culture: 143	2.11	2.61	0.686	0.0407	0.0227	0.0103	-0.00702	1.66
[3], days in culture: 162	2.25	2.64	0.53	0.0384	0.0172	0.00772	-0.00766	2.87
[3], days in culture: 201	2.24	0.795	0.629	-0.145	-0.118	-0.159	-0.214	1.98
[4], days in culture: 105	1.55	1.48	0.453	0.311	0.111	0.00592	-0.00576	1.92
[4], days in culture: 122	1.84	2.34	0.619	0.277	0.107	0.00509	-0.00823	1.91
[4], days in culture: 163	1.76	1.96	0.576	0.334	0.124	0.00767	-0.00793	1.96
